# Patent publication US20250040554A1, “NEW USES OF PHENMEDIPHAM AND HERBICIDAL COMBINATIONS COMPRISING PHENMEDIPHAM” (BAYER AKTIENGESELLSCHAFT, priority 2021, published 2025)
# Key:
# [1] = tested on: corn (Zea mays subsp. amylacea, ZEAMA); experiment: Greenhouse selectivity trial, post-emergence, corn; type: in vivo; settings: 8 DAA
# Description: (§1) The respective (combinations of) materials were applied to weed plants in the greenhouse or in the field at the respective growth stage indicated hereinafter for the different weed species mentioned below. The respective (combinations of) active ingredients were also applied to corn, cotton and soybean crop plants, and the selectivity (damage) in these crop plants rated (assessed).
# (§2) Visual scoring of the damage to the trial plants took place after the time mentioned in the respective Table—indicated in number of Days After Application (DAA). Damage and development of all above-ground parts of the respective plants was recorded. Visual rating was done on a percentage scale in relation to the untreated control (100%=all plants dead; 50%=green plant biomass reduced by 50%, and 0%=no discernible difference=like control plot).
# (§3) The trials in the greenhouse were sprayed with an application volume of 300 L/ha with an automated track sprayer. The plots in the field were sprayed with an application volume of 140 L/ha with a hand held spray boom.
# (§4) In greenhouse selectivity trials and trials herbicidal activity trials against weed plants were investigated in post-emergence application of the respective material(s).
# (§5) Phenmedipham was applied at varying application rates (Dose Rate) to the crop plants of corn (Zea mays subsp. amylacea, ZEAMA), soybean (Glycine max, GLXMA) and cotton (Gossypium hirsutum, GOSHI) at a BBCH growth stage of the plants of BBCH 13 and the crop safety (crop injury, damage) assessed. The results are shown in Table 1 as the % damage when assessed 8 days after application (8 DAA).
# (§6) In all the selectivity trials of Table 1 the adjuvant Mero® (rapeseed oil methyl ester) was added to the respective spray mixture in an amount corresponding to 1 L/ha.
# [2] = tested on: soybean (Glycine max, GLXMA); experiment: Greenhouse selectivity trial, post-emergence, soybean; type: in vivo; settings: 8 DAA
# Description: as §1, §2, §3, §4, §5, §6
# [3] = tested on: cotton (Gossypium hirsutum, GOSHI); experiment: Greenhouse selectivity trial, post-emergence, cotton; type: in vivo; settings: 8 DAA
# Description: as §1, §2, §3, §4, §5, §6
# [4] = tested on: EPHHL=Euphorbia heterophylla; experiment: Weed control field trial EPHHL; type: in vivo
# Description: as §1, §2, §3
# (§7) wherein • A, B=respective value in percent of active ingredient A at a dose rate of a g/ha, ingredient B at a dose rate of b g/ha • E^C=Expected value according to Colby (S. R. Colby; Weeds 15 (1967), 20-22) in % at a dose rate of a+b, each in g/ha • Δ=Difference (in %) between measured value E and expected value E^C (%) (measured value minus expected value)
# (§8) The growth stages of the different weed species are indicated according to the BBCH monograph “Growth stages of mono- and dicotyledonous plants”, 2nd edition, 2001, ed. Uwe Meier, Federal Biological Research Centre for Agriculture and Forestry (Biologische Bundesanstalt für Land und Forstwirtschaft).
# (§9) After the harmful plants had emerged, they were treated, at the respective growth stage indicated, with the respective materials as indicated at a water application rate of 140 L/ha.
# (§10) After the treatment (21 or 35 days after application of the respective material), the herbicidal activity of respective material was scored visually at the same time by comparing the differently treated plots with the untreated control plots. The score figures of the different plots were averaged.
# (§11) The dose rates of herbicidal ingredients used in each case are indicated for the respective active ingredient and refer to the amount of active ingredient per hectare (g/ha).
# (§12) The weed control activity of different (combinations of) herbicidal active ingredients was investigated in field trials for the following weed species: • AMAVI=Amaranthus viridis • IPOAO=Ipomoea aristolochiaefolia • EPHHL=Euphorbia heterophylla • BIDPI=Bidens pilosa • BRADC=Brachiaria decumbens • ELEIN=Eleusine indica • CCHEC=Cenchrus echinatus
# (§13) The growth stage of AMAVI was BBCH 13, the growth stage of IPOAO was BBCH 15, the growth stage of EPHHL was BBCH 13, the growth stage of BIDPI was BBCH 14, the growth stage of BRADC was BBCH 23, the growth stage of ELEIN was BBCH 11 and the growth stage of CCHEC was BBCH 12 at the time of application of the respective material.
# (§14) Phenmedipham and Mesotrione were applied at varying application rates (Dose Rate) to the different species of weed plants. The results are shown in Tables 3a to 3e as the % control when assessed 21 and 35 days after application (DAA), respectively.
# (§15) In all the trials of Tables 3a to 3e Mero® (rapeseed oil methyl ester) was added to the respective spray mixture in an amount corresponding to 1 L/ha for PMP, 1 L/ha for MST, and 2 L/ha for mixtures of PMP+MST.
# [5] = tested on: BRADC=Brachiaria decumbens; experiment: Weed control field trial BRADC; type: in vivo
# Description: as §1, §2, §3, §7, §8, §9, §10, §11, §12, §13, §14, §15
# soybean (GLXMA) = experiment: Damage in soybean in the field trials of Tables 4a to 4e; type: in vivo, Glycine max; settings: PMP applied to GLXMA at growth stage BBCH 14, field trials of Tables 4a to 4e, each case
# Protocol: In the field trials of Tables 4a to 4e also the damage in soybean was assessed when PMP was applied to GLXMA at growth stage BBCH 14. The damage observed in each case was agronomically acceptable, i.e. below 15%.
# [6] = tested on: non-traited soybean (Glycine max, GLXMA); experiment: Field selectivity trial soybean; type: in vivo; settings: 35 DAA
# Description: as §1, §2, §3
# (§16) Phenmedipham and combinations of phenmedipham and mesotrione were applied at varying application rates (Dose Rate) to the crop plants of non-traited soybean (Glycine max, GLXMA) and corn (Zea mays, ZEAMX). The results are shown in Table 5 as the % damage when assessed 35 days after application (DAA), respectively.
# (§17) In all the selectivity trials of Table 5 the adjuvant Mero® (rapeseed oil methyl ester) was added to the respective spray mixture in an amount corresponding to 1 L/ha for PMP, 1 L/ha for MST, and 2 L/ha for mixtures of PMP+MST.
# (§18) The herbicidal effects observed for the herbicide(s) are indicated in % activity against the respective weed. The % damage (injury) indicated refers to the maximum damage observed.
# corn (Zea mays, ZEAMX) = experiment: Field selectivity trial corn; type: in vivo; settings: 35 DAA
# Description: as §1, §2, §3, §16, §17, §18
structure (smiles),measurement,setting,value
"COC(=O)Nc1cccc(OC(=O)Nc2cccc(C)c2)c1 [PMP, 3-[(methoxyformyl)amino]phenyl (3-methylphenyl)carbamate]",% damage ZEAMA (corn),[1]; 12.5 g/ha,0%
same,% damage ZEAMA (corn),[1]; 25 g/ha,0%
same,% damage ZEAMA (corn),[1]; 75 g/ha,7%
same,% damage ZEAMA (corn),[1]; 125 g/ha,0%
same,% damage ZEAMA (corn),[1]; 200 g/ha,15%
same,% damage ZEAMA (corn),[1]; 300 g/ha,30%
same,% damage GLXMA (soybean),[2]; 12.5 g/ha,2%
same,% damage GLXMA (soybean),[2]; 25 g/ha,3%
same,% damage GLXMA (soybean),[2]; 75 g/ha,0%
same,% damage GLXMA (soybean),[2]; 125 g/ha,5%
same,% damage GLXMA (soybean),[2]; 200 g/ha,18%
same,% damage GLXMA (soybean),[2]; 300 g/ha,20%
same,% damage GOSHI (cotton),[3]; 12.5 g/ha,0%
same,% damage GOSHI (cotton),[3]; 25 g/ha,0%
same,% damage GOSHI (cotton),[3]; 75 g/ha,3%
same,% damage GOSHI (cotton),[3]; 125 g/ha,6%
same,% damage GOSHI (cotton),[3]; 200 g/ha,6%
same,% damage GOSHI (cotton),[3]; 300 g/ha,14%
same,% control EPHHL,"[4]; 75 g/ha, 21 DAA",0%
same,% control EPHHL,"[4]; 75 g/ha, 35 DAA",0%
same,% control EPHHL,"[4]; 100 g/ha, 21 DAA",0%
same,% control EPHHL,"[4]; 100 g/ha, 35 DAA",0%
same,% control EPHHL,"[4]; 125 g/ha, 21 DAA",0%
same,% control EPHHL,"[4]; 125 g/ha, 35 DAA",0%
same,% control EPHHL,"[4]; 250 g/ha, 21 DAA",0%
same,% control EPHHL,"[4]; 250 g/ha, 35 DAA",0%
same,% control BRADC,"[5]; 75 g/ha, 21 DAA",0%
same,% control BRADC,"[5]; 75 g/ha, 35 DAA",0%
same,% control BRADC,"[5]; 100 g/ha, 21 DAA",0%
same,% control BRADC,"[5]; 100 g/ha, 35 DAA",0%
same,% control BRADC,"[5]; 125 g/ha, 21 DAA",0%
same,% control BRADC,"[5]; 125 g/ha, 35 DAA",0%
same,% control BRADC,"[5]; 250 g/ha, 21 DAA",0%
same,% control BRADC,"[5]; 250 g/ha, 35 DAA",0%
same,damage in soybean,soybean (GLXMA),below 15%
same,maximum damage GLXMA,[6]; 75 g/ha,10%
same,maximum damage GLXMA,[6]; 125 g/ha,15%
same,maximum damage GLXMA,[6]; 250 g/ha,14%
same,maximum damage ZEAMX,"corn (Zea mays, ZEAMX); 75 g/ha",6%
same,maximum damage ZEAMX,"corn (Zea mays, ZEAMX); 125 g/ha",6%
same,maximum damage ZEAMX,"corn (Zea mays, ZEAMX); 250 g/ha",6%
"CS(=O)(=O)c1ccc(C(=O)C2C(=O)CCCC2=O)c([N+](=O)[O-])c1 [MST, 2-[4-(methylsulfonyl)-2-nitrobenzoyl]cyclohexane-1,3-dione]",% control EPHHL,"[4]; 25 g/ha, 21 DAA",0%
same,% control EPHHL,"[4]; 25 g/ha, 35 DAA",0%
same,% control EPHHL,"[4]; 50 g/ha, 21 DAA",17%
same,% control EPHHL,"[4]; 50 g/ha, 35 DAA",0%
same,% control BRADC,"[5]; 25 g/ha, 21 DAA",0%
same,% control BRADC,"[5]; 25 g/ha, 35 DAA",0%
same,% control BRADC,"[5]; 50 g/ha, 21 DAA",17%
same,% control BRADC,"[5]; 50 g/ha, 35 DAA",13%
same,maximum damage GLXMA,[6]; 25 g/ha,12%
same,maximum damage GLXMA,[6]; 50 g/ha,29%
same,maximum damage ZEAMX,"corn (Zea mays, ZEAMX); 25 g/ha",0%
same,maximum damage ZEAMX,"corn (Zea mays, ZEAMX); 50 g/ha",0%
